This passage reports relative viability results from the supplement of paper PMC10307832.

Each structure is given as a SMILES string.

One experiment deals with HCC-44. The experiment is described as follows: relative viability (nuclei count vs DMSO), 5 days (fraction); higher = more cells survive. The note with it: first compound 2.53 µM. Put shortly: (§1)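 Relative viability was taken as the ratio of nuclei in treated wells to nuclei in vehicle wells. Lung cancer cell lines in 1536-well plates received compounds by pin tool one day after seeding, either one drug alone or a fixed anchor-drug dose plus five library-drug doses (not always all listed) in √10 steps. Nuclei were counted on 4× images after 5 days of treatment, and values are medians of duplicate plates.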
`CCCCCCCCCCCC1=C(O)C(=O)C=C(O)C1=O` [Embelin] + O=C(CCCCCCC(=O)Nc1ccccc1)NO [Vorinostat] (partner 1 µM) came in with a relative viability of 1.12.
The compound `CCCCCCCCCCCC1=C(O)C(=O)C=C(O)C1=O` [Embelin] + C[C@]1(O)C[C@@H](c2nc(-c3ccc4ccc(-c5ccccc5)nc4c3)c3c(N)nccn32)C1 [Linsitinib] (partner 1 µM) returned a relative viability of 0.742.
Turning to `CCCCCCCCCCCC1=C(O)C(=O)C=C(O)C1=O` [Embelin] + CC(C)C[C@H](NC(=O)[C@H](Cc1ccccc1)NC(=O)c1cnccn1)B(O)O [Bortezomib] (partner 0.002 µM), the relative viability was 0.864.
The compound `CCCCCCCCCCCC1=C(O)C(=O)C=C(O)C1=O` [Embelin] + CS(=O)(=O)CCNCc1ccc(-c2ccc3ncnc(Nc4ccc(OCc5cccc(F)c5)c(Cl)c4)c3c2)o1 [Lapatinib] (partner 2 µM) returned a relative viability of 1.15.
In turn, `CCCCCCCCCCCC1=C(O)C(=O)C=C(O)C1=O` [Embelin] + C[C@@H](Oc1cc(-c2cnn(C3CCNCC3)c2)cnc1N)c1c(Cl)ccc(F)c1Cl [Crizotinib] (partner 1 µM) displayed a relative viability of 0.826.

Still in this experiment, the particulars now being: first compound 8 µM.
As to `CCCCCCCCCCCC1=C(O)C(=O)C=C(O)C1=O` [Embelin] + O=C(CCCCCCC(=O)Nc1ccccc1)NO [Vorinostat] (partner 1 µM), the relative viability was 1.2.
The compound `CCCCCCCCCCCC1=C(O)C(=O)C=C(O)C1=O` [Embelin] + C[C@]1(O)C[C@@H](c2nc(-c3ccc4ccc(-c5ccccc5)nc4c3)c3c(N)nccn32)C1 [Linsitinib] (partner 1 µM) displayed a relative viability of 0.642.
The compound `CCCCCCCCCCCC1=C(O)C(=O)C=C(O)C1=O` [Embelin] + CC(C)C[C@H](NC(=O)[C@H](Cc1ccccc1)NC(=O)c1cnccn1)B(O)O [Bortezomib] (partner 0.002 µM) showed a relative viability of 0.897.
As for `CCCCCCCCCCCC1=C(O)C(=O)C=C(O)C1=O` [Embelin] + CS(=O)(=O)CCNCc1ccc(-c2ccc3ncnc(Nc4ccc(OCc5cccc(F)c5)c(Cl)c4)c3c2)o1 [Lapatinib] (partner 2 µM), the relative viability was 0.908.
`CCCCCCCCCCCC1=C(O)C(=O)C=C(O)C1=O` [Embelin] + C[C@@H](Oc1cc(-c2cnn(C3CCNCC3)c2)cnc1N)c1c(Cl)ccc(F)c1Cl [Crizotinib] (partner 1 µM) yielded a relative viability of 0.829.

Another experiment has as its system NCI-H650. Described as above. The settings on record: first compound 0.08 µM. Put shortly:
as §1
In turn, `CCCCCCCCCCCC1=C(O)C(=O)C=C(O)C1=O` [Embelin] + O=C(CCCCCCC(=O)Nc1ccccc1)NO [Vorinostat] (partner 1 µM) returned a relative viability of 0.393.
Still for that read-out and setting: the same measure for `CCCCCCCCCCCC1=C(O)C(=O)C=C(O)C1=O` [Embelin] + C[C@]1(O)C[C@@H](c2nc(-c3ccc4ccc(-c5ccccc5)nc4c3)c3c(N)nccn32)C1 [Linsitinib] (partner 1 µM): 0.812.
In turn, `CCCCCCCCCCCC1=C(O)C(=O)C=C(O)C1=O` [Embelin] + CC(C)C[C@H](NC(=O)[C@H](Cc1ccccc1)NC(=O)c1cnccn1)B(O)O [Bortezomib] (partner 0.002 µM) gave a relative viability of 0.64.
In turn, `CCCCCCCCCCCC1=C(O)C(=O)C=C(O)C1=O` [Embelin] + CS(=O)(=O)CCNCc1ccc(-c2ccc3ncnc(Nc4ccc(OCc5cccc(F)c5)c(Cl)c4)c3c2)o1 [Lapatinib] (partner 2 µM) displayed a relative viability of 0.677.
Same read-out and setting: as for `CCCCCCCCCCCC1=C(O)C(=O)C=C(O)C1=O` [Embelin] + C[C@@H](Oc1cc(-c2cnn(C3CCNCC3)c2)cnc1N)c1c(Cl)ccc(F)c1Cl [Crizotinib] (partner 1 µM), the figure is 0.772.

Still in this experiment, the particulars now being: first compound 0.8 µM.
`CCCCCCCCCCCC1=C(O)C(=O)C=C(O)C1=O` [Embelin] + O=C(CCCCCCC(=O)Nc1ccccc1)NO [Vorinostat] (partner 1 µM) displayed a relative viability of 0.557.
`CCCCCCCCCCCC1=C(O)C(=O)C=C(O)C1=O` [Embelin] + C[C@]1(O)C[C@@H](c2nc(-c3ccc4ccc(-c5ccccc5)nc4c3)c3c(N)nccn32)C1 [Linsitinib] (partner 1 µM) displayed a relative viability of 1.41.
Regarding `CCCCCCCCCCCC1=C(O)C(=O)C=C(O)C1=O` [Embelin] + CC(C)C[C@H](NC(=O)[C@H](Cc1ccccc1)NC(=O)c1cnccn1)B(O)O [Bortezomib] (partner 0.002 µM), the relative viability was determined as 1.
On the same count and under the same terms, the same measure for `CCCCCCCCCCCC1=C(O)C(=O)C=C(O)C1=O` [Embelin] + CS(=O)(=O)CCNCc1ccc(-c2ccc3ncnc(Nc4ccc(OCc5cccc(F)c5)c(Cl)c4)c3c2)o1 [Lapatinib] (partner 2 µM): 1.47; for `CCCCCCCCCCCC1=C(O)C(=O)C=C(O)C1=O` [Embelin] + C[C@@H](Oc1cc(-c2cnn(C3CCNCC3)c2)cnc1N)c1c(Cl)ccc(F)c1Cl [Crizotinib] (partner 1 µM): 0.817.

Staying with this experiment, now noted: first compound 2.53 µM.
Compound `CCCCCCCCCCCC1=C(O)C(=O)C=C(O)C1=O` [Embelin] + O=C(CCCCCCC(=O)Nc1ccccc1)NO [Vorinostat] (partner 1 µM) gave a relative viability of 0.354.
`CCCCCCCCCCCC1=C(O)C(=O)C=C(O)C1=O` [Embelin] + C[C@]1(O)C[C@@H](c2nc(-c3ccc4ccc(-c5ccccc5)nc4c3)c3c(N)nccn32)C1 [Linsitinib] (partner 1 µM) came in with a relative viability of 0.653.
Still for that read-out and setting: the same measure for `CCCCCCCCCCCC1=C(O)C(=O)C=C(O)C1=O` [Embelin] + CC(C)C[C@H](NC(=O)[C@H](Cc1ccccc1)NC(=O)c1cnccn1)B(O)O [Bortezomib] (partner 0.002 µM): 0.668.
Compound `CCCCCCCCCCCC1=C(O)C(=O)C=C(O)C1=O` [Embelin] + CS(=O)(=O)CCNCc1ccc(-c2ccc3ncnc(Nc4ccc(OCc5cccc(F)c5)c(Cl)c4)c3c2)o1 [Lapatinib] (partner 2 µM) yielded a relative viability of 0.831.
Compound `CCCCCCCCCCCC1=C(O)C(=O)C=C(O)C1=O` [Embelin] + C[C@@H](Oc1cc(-c2cnn(C3CCNCC3)c2)cnc1N)c1c(Cl)ccc(F)c1Cl [Crizotinib] (partner 1 µM) showed a relative viability of 0.711.

The experiment is the same for the next values; noted with them: first compound 8 µM.
The compound `CCCCCCCCCCCC1=C(O)C(=O)C=C(O)C1=O` [Embelin] + O=C(CCCCCCC(=O)Nc1ccccc1)NO [Vorinostat] (partner 1 µM) gave a relative viability of 0.484.
As to `CCCCCCCCCCCC1=C(O)C(=O)C=C(O)C1=O` [Embelin] + C[C@]1(O)C[C@@H](c2nc(-c3ccc4ccc(-c5ccccc5)nc4c3)c3c(N)nccn32)C1 [Linsitinib] (partner 1 µM), the relative viability came out at 0.716.
The compound `CCCCCCCCCCCC1=C(O)C(=O)C=C(O)C1=O` [Embelin] + CC(C)C[C@H](NC(=O)[C@H](Cc1ccccc1)NC(=O)c1cnccn1)B(O)O [Bortezomib] (partner 0.002 µM) had a relative viability of 0.453.
Take `CCCCCCCCCCCC1=C(O)C(=O)C=C(O)C1=O` [Embelin] + CS(=O)(=O)CCNCc1ccc(-c2ccc3ncnc(Nc4ccc(OCc5cccc(F)c5)c(Cl)c4)c3c2)o1 [Lapatinib] (partner 2 µM): the relative viability came out at 0.658.
